For data set [1], the target named is T1, Tyrosine-protein kinase SYK (Homo sapiens, UniProt P43405). Kind of data set: Inhibition of SYK (unknown origin) using ULight-TK peptide as substrate at 1 uM incubated for 120 mins in presence of ATP by Lance Ultra Kinase assay relative to control.
The subject of a further data set is Splenocyte. Kind of data set: Immunosuppressive activity in BALB/c mouse Splenocyte assessed as inhibition of concanavalin A induced T-cell proliferation incubated for 48 hrs by [3H]-thymidine incorporation based beta scintillation counter analysis. It counts as functional. (Incorporation of labelled thymidine or its analogues reports DNA synthesis.)
Data set [2] deals with T1, Tyrosine-protein kinase SYK. In words: Inhibition of SYK (unknown origin) using ULight-TK peptide as substrate incubated for 120 mins in presence of ATP by Lance Ultra Kinase assay.
Data set [3] is described as follows: GSH reactivity of compound at pH 7.4 PBS buffer assessed as half life incubated for 180 min by HPLC-MS analysis. It counts as physicochemical. The conditions noted are these: glutathione (GSH) in PBS buffer.
For data set [4], the target named is T2, Tyrosine-protein kinase ZAP-70 (Homo sapiens, UniProt P43403).
T2 sequence (P43403 whole entry): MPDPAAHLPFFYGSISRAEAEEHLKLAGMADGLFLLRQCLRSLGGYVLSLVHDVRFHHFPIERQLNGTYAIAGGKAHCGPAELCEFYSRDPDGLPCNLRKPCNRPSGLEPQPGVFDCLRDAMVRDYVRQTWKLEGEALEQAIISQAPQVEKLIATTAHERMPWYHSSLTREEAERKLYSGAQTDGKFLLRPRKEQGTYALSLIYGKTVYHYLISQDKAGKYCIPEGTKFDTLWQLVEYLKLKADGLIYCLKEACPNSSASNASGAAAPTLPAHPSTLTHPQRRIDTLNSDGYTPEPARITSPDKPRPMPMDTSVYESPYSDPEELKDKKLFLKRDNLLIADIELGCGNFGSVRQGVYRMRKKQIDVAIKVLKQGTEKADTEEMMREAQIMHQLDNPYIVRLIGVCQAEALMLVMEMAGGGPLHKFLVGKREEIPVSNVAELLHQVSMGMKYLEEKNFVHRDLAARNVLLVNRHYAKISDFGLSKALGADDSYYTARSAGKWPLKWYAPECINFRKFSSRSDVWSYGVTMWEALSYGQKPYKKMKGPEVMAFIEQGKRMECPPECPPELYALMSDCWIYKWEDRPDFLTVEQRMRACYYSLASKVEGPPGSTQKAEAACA
Kind of data set: Inhibition of ZAP-70 (unknown origin) using ULight-TK peptide as substrate incubated for 120 mins in presence of ATP by Lance Ultra Kinase assay.

The source made the active and inactive calls.

This is an account of results in ChEMBL document CHEMBL5365427, “Discovery and Structural Optimization of Covalent ZAP-70 Kinase Inhibitors against Psoriasis” (J Med Chem, 2023).

What is called inhibition is the relative decrease from the control value, in per cent. With `C=CC(=O)Nc1cc(Cl)cc(CNc2nc(Nc3cc(OC)cc(OC)c3)c(C(N)=O)c3nccn23)c1`, the inhibition in data set [1] was 8.2%.
As a reminder, the IC50 is the midpoint of a concentration-inhibition curve. In the case of `C=CC(=O)Nc1cc(CNc2nc(Nc3ccc(N4CCC(O)CC4)c(OC)c3)c(C(N)=O)c3nccn23)ccc1Cl`, the inhibition in data set [1] stood at 47.1%. The outcome with Splenocyte was Active. The IC50 in data set [2] turned out to be 1290 nM.
With `C=CC(=O)Nc1cccc(CNc2nc(Nc3cc(OC)cc(OC)c3)c(C(N)=O)c3nccn23)c1F`, the inhibition in data set [1] was found to be 44.7%. In addition, the IC50 in data set [2] was found to be 7000 nM.
As to `C=CC(=O)Nc1cc(CNc2nc(Nc3ccc(N4CCCN(C)CC4)c(OC)c3)c(C(N)=O)c3nccn23)ccc1Cl`, the inhibition in data set [1] stood at 71.2%. Besides, in the data set on Splenocyte, the outcome was Active. The IC50 in data set [2] is 1280 nM.
For `C=CC(=O)Nc1cc(F)cc(CNc2nc(Nc3cc(OC)cc(OC)c3)c(C(N)=O)c3nccn23)c1`, the inhibition in data set [1] turned out to be 0.8%.
The same measure, in the same setting: for `C=CC(=O)Nc1ccc2c(c1)CN(c1nc(Nc3cc(OC)cc(OC)c3)c(C(N)=O)c3nccn13)CC2` the value was 22.3%; for `C=CC(=O)Nc1cc(CNc2nc(Nc3ccc(N4CCOCC4)cc3OC)c(C(N)=O)c3nccn23)ccc1Cl`, 3.2%.
Usually half-life stands for the time needed for the level to fall by half in the phase considered. Take `C=CC(=O)Nc1cc(CNc2nc(Nc3cc(OC)cc(OC)c3)c(C(N)=O)c3nccn23)ccc1Cl`: in data set [1], the inhibition turned out to be 17.5%. In addition, the half-life in data set [3] is 1.35 h. The IC50 in data set [2] is more than 10000 nM.
Consider `COc1cc(Nc2nc(NCc3cccc(NC(=O)CCl)c3)n3ccnc3c2C(N)=O)cc(OC)c1`, for which, in data set [1], the inhibition is 20.7%. In addition, the outcome in the data set with Splenocyte was Active. The IC50 in data set [4] was 44.8 nM; in data set [2] it was more than 10000 nM.
With `C=CC(=O)Nc1cc(CNc2nc(Nc3ccc(N4CCOCC4)c(OCC)c3)c(C(N)=O)c3nccn23)ccc1Cl`, the inhibition in data set [1] was determined as 82%. The outcome in the data set on Splenocyte was Active. Besides, the IC50 in data set [2] stood at 641 nM.
As to `C=CC(=O)Nc1cc(CNc2nc(Nc3ccc(N4CCOCC4)c(NC(C)=O)c3)c(C(N)=O)c3nccn23)ccc1Cl`, the inhibition in data set [1] amounted to 18.8%.
For the compound `C=CC(=O)Nc1cc(CNc2nc(Nc3cc(OC)cc(OC)c3)c(C(N)=O)c3nccn23)ccc1C`, in data set [1], the inhibition came to 15.1%.
In the case of `C=CC(=O)Nc1cc(CNc2nc(Nc3ccc(N4CCN(C)CC4)c(OC)c3)c(C(N)=O)c3nccn23)ccc1Cl`, the inhibition in data set [1] worked out at 84%. Moreover, the result with Splenocyte was Active. Also, the IC50 in data set [2] worked out at 532 nM.
Consider `C=CC(=O)Nc1cc(CNc2nc(Nc3ccc(N4CCOCC4)c(CO)c3)c(C(N)=O)c3nccn23)ccc1Cl`, for which, in data set [1], the inhibition worked out at 40.2%. Also, the IC50 in data set [2] turned out to be 4280 nM.
For the compound `C=CC(=O)Nc1cc(CNc2nc(Nc3cc(OC)cc(OC)c3)c(C(N)=O)c3nccn23)ccn1`, in data set [1], the inhibition stood at 7%. Further, the half-life in data set [3] was 0.383 h.
As to `C=CC(=O)Nc1cccc(C(C)Nc2nc(Nc3cc(OC)cc(OC)c3)c(C(N)=O)c3nccn23)c1` (stereo unspecified), the inhibition in data set [1] was found to be 10.1%.
Still for that read-out and setting: for `C=CC(=O)N1CCCc2c(CNc3nc(Nc4cc(OC)cc(OC)c4)c(C(N)=O)c4nccn34)cccc21` the value was 10.9%; for `C=CC(=O)Nc1cccc(CNc2nc(Nc3cc(OC)cc(OC)c3)c(C(N)=O)c3nccn23)c1Cl`, 13.2%.
For `C=CC(=O)Nc1cccc(CNc2nc(Nc3cc(OC)cc(OC)c3)c(C(N)=O)c3nccn23)c1`, in data set [1], the inhibition was 15.4%. For the same compound, the half-life in data set [3] is 4.23 h.
For the compound `C=CC(=O)Nc1ccc(F)c(CNc2nc(Nc3cc(OC)cc(OC)c3)c(C(N)=O)c3nccn23)c1`, in data set [1], the inhibition amounted to 6.2%.
Same read-out and setting: as for `C=CC(=O)Nc1cc(CNc2nc(Nc3cc(OC)cc(OC)c3)c(C(N)=O)c3nccn23)ccc1C(F)(F)F`, the figure is 0.5%.
`C=CC(=O)Nc1cc(CNc2nc(Nc3ccc(N4CCOCC4)cc3)c(C(N)=O)c3nccn23)ccc1Cl`: the inhibition in data set [1] came out at 61.4%. In data set [2], the IC50 was 5530 nM.
For `C=CC(=O)Nc1cccc(CN(C)c2nc(Nc3cc(OC)cc(OC)c3)c(C(N)=O)c3nccn23)c1`, the inhibition in data set [1] was -5.9%.
For the compound `C=CC(=O)Nc1cc(CNc2nc(Nc3cc(OC)cc(OC)c3)c(C(N)=O)c3nccn23)ccc1F`, the inhibition in data set [1] was 19.8%. The half-life in data set [3] came to 1.07 h. Moreover, in data set [2], the IC50 was more than 10000 nM.
`C=CC(=O)Nc1cc(CNc2nc(Nc3ccc(N4CCOCC4)c(OC(C)C)c3)c(C(N)=O)c3nccn23)ccc1Cl`: in data set [1], the inhibition was 27.6%.
Take `C=CC(=O)Nc1cc(CNc2nc(Nc3cc(OC)cc(N4CCOCC4)c3)c(C(N)=O)c3nccn23)ccc1Cl`: the inhibition in data set [1] was 17.7%.
The same measure, in the same setting: for `C=CC(=O)Nc1ccc(Cl)c(CNc2nc(Nc3cc(OC)cc(OC)c3)c(C(N)=O)c3nccn23)c1` the value was 6.8%.
`C=CC(=O)Nc1cc(CNc2nc(Nc3ccc(N4CCN(C5COC5)CC4)c(OC)c3)c(C(N)=O)c3nccn23)ccc1Cl`: the inhibition in data set [1] stood at 87.5%. The outcome with Splenocyte was Active. Also, the IC50 in data set [2] was 598 nM.
Take `C=CC(=O)Nc1cc(CNc2nc(Nc3cc(OC)cc(OC)c3)c(C(N)=O)c3nccn23)ccc1O`: the inhibition in data set [1] amounted to 9%.
